Experimental data reported in US10717712B2, “Pegylated prodrugs of phenolic TRPV1 agonists” (CONCENTRIC ANALGESICS, INC., priority 2018, dated 2020).

Assay: Aqueous solubility in DI water (visual inspection)
Format: physicochemical
Conditions: HCl salt, incubated at 50 or 100 mg/mL
Procedure: In order to determine the aqueous solubility of the compounds described herein, the HCl salts of the following compounds were incubated at either 50 or 100 mg/mL in DI water and visually inspected for insoluble material.

Which solubility does the source give for `CNCC1CN(C(=O)CCOCCOCCOCCOC)CCN1C(=O)Oc1ccc(CNC(=O)CCCC/C=C/C(C)C)cc1OC` (stereo not shown) [Compound 1, (E)-2-methoxy-4-((8-methylnon-6-enamido)methyl)phenyl 2-((methylamino)methyl)-4-(2,5,8,11-tetraoxatetradecan-14-oyl)piperazine-1-carboxylate] here?
Its solubility is > 100 mg/mL.
